Test results published in BindingDB's records for doi:10.1016/j.bmc.2014.05.025 (University of California, 2014).

Biological target: T1, Polyunsaturated fatty acid lipoxygenase ALOX12 (Homo sapiens, UniProt P18054)
T1 sequence (P18054 whole entry): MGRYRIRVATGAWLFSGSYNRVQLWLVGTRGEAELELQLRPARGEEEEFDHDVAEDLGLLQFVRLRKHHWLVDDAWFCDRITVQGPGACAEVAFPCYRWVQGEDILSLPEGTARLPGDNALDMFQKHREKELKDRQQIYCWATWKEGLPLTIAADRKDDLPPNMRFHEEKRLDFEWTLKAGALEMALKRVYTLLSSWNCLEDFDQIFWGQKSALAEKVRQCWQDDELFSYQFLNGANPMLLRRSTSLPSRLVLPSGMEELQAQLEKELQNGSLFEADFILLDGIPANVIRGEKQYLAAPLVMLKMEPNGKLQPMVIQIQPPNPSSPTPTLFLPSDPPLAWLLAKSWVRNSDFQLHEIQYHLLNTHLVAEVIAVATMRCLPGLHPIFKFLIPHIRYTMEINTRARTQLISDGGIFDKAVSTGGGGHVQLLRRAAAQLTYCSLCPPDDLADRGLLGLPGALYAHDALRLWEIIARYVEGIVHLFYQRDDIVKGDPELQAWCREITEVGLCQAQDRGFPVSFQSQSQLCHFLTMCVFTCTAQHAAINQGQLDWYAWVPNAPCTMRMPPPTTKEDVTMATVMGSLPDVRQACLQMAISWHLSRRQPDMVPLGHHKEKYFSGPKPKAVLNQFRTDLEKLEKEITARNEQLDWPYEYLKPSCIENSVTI
Test: Mixed type inhibition of human platelet 12-lipoxygenase assessed as equilibrium inhibitor constant of dissociation from enzyme by measuring 12-HpETE formation in presence of 0.01% Triton-X-100 by Dixon plot based steady-state inhibition kinetics assay

- Ki: 87 nM
Structure (SMILES): CCCCCC(=O)C=CC=CC/C=C\C/C=C\CCCC(=O)O [(5Z,8Z,11Z,13E)-15-oxoicosa-5,8,11,13-tetraenoic acid]
